Patent US20070203242A1, “Method for treating gastric reflux” (priority 2006, published 2007)

Legend:
[1] = tested on: patients with gastric reflux / heartburn; assay: Patient reports of relief of gastric reflux / heartburn after oral L-arginine compositions; assay type: in vivo, human; conditions: for relief of gastric reflux due to stress: one patient
Text: A patient having ulcerations in the upper small intestine who routinely took omeprazole or lansoprazole complained of heartburn on laying down.

[2] = tested on: small bowel ulcers; conditions: rats; yeast RNA together with L-arginine; cited from earlier work
[3] = tested on: aspirin induced gastric lesions; conditions: dose 62.5 mg/kg; cited from earlier work
[4] = tested on: indomethacin induced gastric lesions; conditions: dose 15.6 mg/kg; cited from earlier work

SMILES | L-arginine required for complete control of the gastric reflux ([1]; daily, severely afflicted patient) | time to complete cessation of all symptoms ([1]; one patient with reflux due to stress, L-arginine 1 gram dose) | relief of gastric reflux due to stress ([1]; L-arginine 1 gram dose) | decrease in ulcer number [2] | prevention of aspirin induced gastric lesions [3] | prevention of indomethacin induced gastric lesions [4]
N=C(N)NCCC[C@H](N)C(=O)O [L-arginine] | 1 to 4 g | complete cessation of all symptoms within one minute | immediate relief | 34% | – | –
NC(=O)CC[C@H](N)C(=O)O [Glutamine, L-glutamine] | – | – | – | – | completely ineffective | ineffective
O=C([O-])[O-].[Ca+2] [calcium carbonate antacids, calcium carbonate, reference compound] | – | – | no relief | – | – | –
